Laboratory results reported in patent US10202331B2, “Antifibrinolytic compounds” (THROMBOLYTICS, LLC, priority 2014, dated 2019).

Legend:
[1] = target: Human Plasminogen (Homo sapiens, UniProt P00747); assay: Coupled in vitro fibrinolytic assay (fibrin clot lysis, absorbance at 405 nm); assay type: biochemical; details: for Potency TXA = 100: relative to TXA = 100
From the text: The principles and procedures for these assays are as follows. • a) The coupled enzyme reactions in these fibrinolytic assays The assays are constituted of four principal reactions. These are: • (a) The thrombin catalyzed conversion of fibrinogen to the insoluble fibrin clot. Soluble human fibrinogen is a constituent of these assays. The assays are initiated by the addition of human Thrombin, causing the known partial proteolysis of fibrinogen to generate fibrin, which polymerizes to yield an insoluble, opaque “clot”. This is not the same as a fibrin clot obtained physiologically, as it lacks numerous attributes of a physiological clot. […] It is known to bind with a very high affinity to insoluble polymerized fibrin, while it has a much weaker affinity for Fibrinogen. […] All constituents are prepared at appropriate higher stock concentrations from which aliquots are taken and mixed to a final volume of 400 μliters. Included ingredients and their final (assay) concentration are: […] The plates are placed in the plate reader sample compartment maintained at 37°. Assays are conducted with or without pre incubating the fibrinolytic inhibitors with the protein(s) of interest overnight. These two protocols are as follows: • (a) Experiments without pre-incubation: These assays are constituted as follows: […] The assay solutions are mixed & stirred, and the micro titer plate placed in the plate reader. Assays are initiated by delivering a solution (20 μliters) containing Thrombin and either Urokinase or TPA. […] Following pre incubation, the assay solutions are warmed to 37° in the plate reader, and the assays carried out as in (a), above, being initiated with the addition of Thrombin and TPA or Urokinase. The role of Antifibrinolytics in slowing clot dissolution is illustrated in the FIGURE, which illustrates the type of data obtained from the coupled Fribrinolysis Assays described above in Protocols 3(a) and 3(b). […] This represents the formation of fibrin in the assays. […] As a result, an exponential decay in the amount of fibrin present in the assays is observed. This process is illustrated above over a 10 to 30 minute period in control assays, in the absence of antifibrinolytic compounds. As a rough approximation, these can be considered as two sequential exponential processes—the first, formation of fibrin, or the clot, preceding the second—clot breakdown or the fibrinolytic process. A rough measure of the efficacy of fibrinolytic inhibitors, as determined in these coupled assays, is the half-life of the pseudo exponential decline in the optical density of the assay mixtures in the second portion of the reaction. A more rigorous measure of the effectiveness of the compounds to inhibit fibrinolysis, and, by inference, physiological thrombolytic processes, can be obtained by recording the observed fibrinolytic half-lives as a function of the fibrinolytic inhibitor concentration.

[2] = tested on: Kringles; assay: Ability to substitute for EACA/TXA in binding to Kringles; details: as determined by the applicant
From the text: The D-configuration is preferred in the terminal amino acid in order to protect these dipeptides from peptidases.

[3] = Compounds Preincubated with Plasminogen and Fibrinogen
[4] = Compounds Preincubated with Plasminogen and Fibrinogen, relative to control without inhibitor
[5] = No Preincubation, fibrin half life relative to control without inhibitor

Sequence of Human Plasminogen (P00747 20-810 limits assumed): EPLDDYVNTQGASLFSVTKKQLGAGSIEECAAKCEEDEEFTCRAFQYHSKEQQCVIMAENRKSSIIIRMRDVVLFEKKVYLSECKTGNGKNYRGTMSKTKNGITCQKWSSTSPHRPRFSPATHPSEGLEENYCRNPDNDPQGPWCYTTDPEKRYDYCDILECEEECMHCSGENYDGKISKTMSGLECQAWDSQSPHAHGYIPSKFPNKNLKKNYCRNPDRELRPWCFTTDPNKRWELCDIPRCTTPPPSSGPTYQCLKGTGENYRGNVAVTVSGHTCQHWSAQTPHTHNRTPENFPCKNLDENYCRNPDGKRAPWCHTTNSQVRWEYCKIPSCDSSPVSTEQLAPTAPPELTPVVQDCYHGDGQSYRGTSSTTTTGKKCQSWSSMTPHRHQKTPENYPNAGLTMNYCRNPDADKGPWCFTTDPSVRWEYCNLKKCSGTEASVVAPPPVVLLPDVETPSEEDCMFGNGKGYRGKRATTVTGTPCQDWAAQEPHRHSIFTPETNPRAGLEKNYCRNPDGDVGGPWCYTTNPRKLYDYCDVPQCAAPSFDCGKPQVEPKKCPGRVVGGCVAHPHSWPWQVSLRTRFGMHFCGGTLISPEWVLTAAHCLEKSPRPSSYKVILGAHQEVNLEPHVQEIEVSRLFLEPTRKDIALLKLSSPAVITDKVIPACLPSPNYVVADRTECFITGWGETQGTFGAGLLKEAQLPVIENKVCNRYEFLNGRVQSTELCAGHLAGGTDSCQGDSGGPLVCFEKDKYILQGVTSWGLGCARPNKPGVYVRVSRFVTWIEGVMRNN

| SMILES | Inhibition Percent [1, 3] [%] | Potency TXA = 100 [1, 3] | Percent Of Control [1, 4] [%] | Inhibition Percent ([1]; No Preincubation) [%] | Percent Of Control [1, 5] [%] | Potency TXA = 100 ([1]; No Preincubation) | ability to substitute for EACA/TXA [2] | anti-fibrinolytic effect compared with ACA or TXA (in words) [1] |
| --- | --- | --- | --- | --- | --- | --- | --- | --- |
| NCCCCCC(=O)O [ACA, 6-aminohexanoic acid] | 41.8 | 52 | 172 | 37.5 | 160 | 53 |  |  |
| C[S+](C)CCCCCC(=O)O [ACA_S, 6-(S,S dimethylthio) Hexanoic acid sultane] | 88.5 | 264 | 870 | 70.0 | 333 | 111 |  |  |
| Cn1cncc1C[C@H](NC(=O)CCN)C(=O)O [Anserine] |  |  |  |  |  |  | substitute for EACA/TXA |  |
| NCCC(=O)N[C@@H](Cc1c[nH]cn1)C(=O)O [Carnosine, β-Alanyl histidine] |  |  |  |  |  |  | substitute for EACA/TXA |  |
| NC[C@H]1CC[C@H](C(=O)O)CC1 [TXA, trans-4-(aminomethyl)cyclohexanecarboxylic acid] | 69.7 | 100 | 329 | 66.6 | 300 | 100 |  |  |
| C[S+](C)C[C@H]1CC[C@H](C(=O)O)CC1.[Cl-] [TXA_S, trans-(4-dimethylthiomethyl) Cyclohexane-1-carboxylic acid sulfonium chloride] | 90.6 | 321 |  | 71.9 | 356 | 119 |  | functions as well as TXA in inhibiting fibrinolysis |
